# Laboratory results as given in patent publication EP0452101B1, “Spiro bridged and unbridged heterocyclic compounds” (ISRAEL INSTITUTE FOR BIOLOGICAL RESEARCH, priority 1990, dated 1991).
# Where two headings read alike, the source gives them in different places.
# Key:
# M1 muscarinic receptor [1] = molecular target: T1, M1 muscarinic receptor (Rattus norvegicus, UniProt P08482); assay: Displacement of 3H-PZ from rat cerebral cortex, 10 mM phosphate buffer; format: binding; design: from tissue; host or cells: rat cerebral cortex homogenates
# T1 sequence (P08482 1-460): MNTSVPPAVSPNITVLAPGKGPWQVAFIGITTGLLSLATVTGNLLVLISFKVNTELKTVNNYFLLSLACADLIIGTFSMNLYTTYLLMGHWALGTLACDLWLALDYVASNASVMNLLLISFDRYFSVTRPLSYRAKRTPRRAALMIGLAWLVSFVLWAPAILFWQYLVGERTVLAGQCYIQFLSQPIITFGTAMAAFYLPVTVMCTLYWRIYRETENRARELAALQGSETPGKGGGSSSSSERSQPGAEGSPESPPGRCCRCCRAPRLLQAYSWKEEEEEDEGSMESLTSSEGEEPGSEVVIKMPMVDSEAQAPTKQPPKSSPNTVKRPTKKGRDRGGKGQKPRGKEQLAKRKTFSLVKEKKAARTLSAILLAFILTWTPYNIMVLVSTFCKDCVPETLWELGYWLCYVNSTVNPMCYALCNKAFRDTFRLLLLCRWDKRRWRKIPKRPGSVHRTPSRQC
# muscarinic receptors = assay: (-)3H-QNB binding to rat cerebral cortex homogenates with and without Cu++ treatment
# [2] = molecular target: T2, m4 subtype receptors (PC12 cells) (Rattus norvegicus, UniProt P08485); assay: Inhibition of adenylate cyclase activity in PC12 cells; format: cell-based; settings: for EC50: PC12 m4, AC activity; for AC (adenylate cyclase activity): PC12 m4, tested at 1mM
# T2 construct: endogenous in cells; host or cells: PC12 cells
# T2 sequence (P08485 1-478): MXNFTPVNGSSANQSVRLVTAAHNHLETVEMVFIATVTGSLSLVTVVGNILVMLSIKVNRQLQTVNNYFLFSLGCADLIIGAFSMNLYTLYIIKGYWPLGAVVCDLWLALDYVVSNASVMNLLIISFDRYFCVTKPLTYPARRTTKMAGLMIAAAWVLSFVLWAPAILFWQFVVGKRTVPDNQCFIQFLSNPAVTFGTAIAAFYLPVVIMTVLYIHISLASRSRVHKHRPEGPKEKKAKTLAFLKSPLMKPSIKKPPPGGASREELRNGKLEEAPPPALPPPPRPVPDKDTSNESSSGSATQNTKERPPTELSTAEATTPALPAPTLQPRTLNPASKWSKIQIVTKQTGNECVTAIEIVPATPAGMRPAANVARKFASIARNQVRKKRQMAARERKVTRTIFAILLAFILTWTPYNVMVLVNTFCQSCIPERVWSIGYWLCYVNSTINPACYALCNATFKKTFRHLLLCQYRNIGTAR
# Experimental: The new compounds AF150, AF151, AF150(S) and AF125 were assayed for their ability to stimulate PI in CHO cells transfected with m1 and m3 receptors, respectively (Buck and Fraser, loc cit), and in cultured human neuroblastoma cells, line SK-N-SH, which express mainly the m3 subtype, but not the m1 subtype (Pinkas-Kramarski et al, Neurosci. Lett. 188: 335-340, 1990; Luthin et al Mol. Pharmacol. 34: 327-333, 1988). These compounds were also assayed on cultured PC12 cells which express mainly m4 subtype receptors and are coupled to inhibition of AC activity (Pinkas-Kramarski et al, loc cit).
# Stimulation of PI breakdown was assayed using the method described by Stein et al (EMBO J. 7: 3031-3035, 1988), and modulation of AC activity was assayed by the method of Stein et al, loc cit and Pinkas-Kramarski et al (FEBS Lett., 239: 174-178, 1988). […]
# AF64A-treated rats = assay: 8-arm radial maze (RAM) with delay procedure in AF64A-treated rats, Part B; format: in vivo
# Experimental: This animal model mimics the cholinergic hypofunction and cognitive dysfunction in SDAT (Fisher and Hanin, loc cit; Fisher et al, Neurosci. Lett. 102: 325-331, 1989); the method described in the latter publication was used here.
# In brief, saline- and A64A-pretreated rats (3 nmole/2 µl./side, icv) were used in these experiments, 2.5 months after the lesion. The experiment was carried out over a three-week period. During the first week the rats were trained to find food pellets in all eight arms of the maze. After learning the task, the rats were trained using the delay procedure. During a predelay session, four of the arms of the maze were closed and the rats collected the food pellets from the remaining four opened arms. During this period working memory errors were recorded. Following a two hour delay, the rats were returned to the maze. All of the arms of the maze were now open but only four of them, those which were closed during the pre-delay session, were baited. The rats had to collect the food pellets without entering any previously visited arms, whether during the predelay or the post-delay session. After reaching a baseline level the rats were tested for their performance during the third week of the experiment in which either 10mM phosphate buffer (pH 7.3), or AF150 (0.07 or 1.0 mg./kg. free base dissolved in 10 mM phosphate buffer, pH 7.3), were administered i.p., immediately after the pre-delay session, once a day for five days.
# M1 muscarinic receptor [3] = molecular target: T1, M1 muscarinic receptor; assay: Potentiation of AC activity (basal and forskolin-stimulated cAMP) via m1 receptors; format: cell-based; design: expressed in transfected cells; host or cells: CHO cells
# Source text: Stimulation of m1 and m3 receptors elicit dose-dependent increases in the hydrolysis of phosphoinositides (PI). Agonist activation of the m1 receptor also elicits increases in basal and forskolin-stimulated cAMP, whereas the m3 receptor has no effect on intracellular cAMP levels (Buck and Fraser, Biochem. Biophys. Res. Comm. 173: 662-672, 1990). Stimulation of the m2 and m4 receptors by muscarinic agonists leads to preferential inhibition of adenylate cyclase (AC) activity (Mei et al, Life Sciences, 45: 1831-1851, 1989).
# [4] = cortex, Table 4, read-out: 3H-PZ-Binding KH (a)
smiles,measurement,setting,value
"CC1=NCC2(CN3CCC2CC3)O1 (racemic) [AF125, 2-Methyl-spiro(1,3 oxazoline-5,3')quinuclidine]",Ki,M1 muscarinic receptor [1]; [4],4 µM
"CC1=NCC2(CCN(C)CC2)O1 [AF150, 2-Methyl-spiro(1,3-oxazoline-5,4')-1'-methylpiperidine]",%H (% of high affinity state),"muscarinic receptors; with Cu++ pretreatment (100 µM, 30 minutes)",37%
same,%H (% of high affinity state),"muscarinic receptors; with Cu++ pretreatment (100 µM, 30 minutes), listed as 5",37±2%
same,Ki,"muscarinic receptors; with Cu++ pretreatment (100 µM, 30 minutes), read-out: KH",0.52 ± 0.003 µM
same,Ki,"muscarinic receptors; with Cu++ pretreatment (100 µM, 30 minutes), read-out: KL",18 ± 2 µM
same,%H (% of high affinity state),muscarinic receptors; without pretreatment,14%
same,%H (% of high affinity state),"muscarinic receptors; without pretreatment, listed as 5",14±1%
same,Ki,"muscarinic receptors; without pretreatment, read-out: KH",0.32 µM
same,Ki,"muscarinic receptors; without pretreatment, read-out: KL",33.5 µM
same,EC50,[2],1000 nM
same,AC (adenylate cyclase activity),[2],+++
same,Working memory errors (session I),"AF64A-treated rats; AF150 0.07 mg./kg., i.p. group, AF64A rats, week (pre)II, before treatment",3.33±1.18
same,Working memory errors (session I),"AF64A-treated rats; AF150 0.07 mg./kg., i.p. group, Sal. rats, week (pre)II, before treatment",0.33±0.12
same,Working memory errors (session I),"AF64A-treated rats; AF150 0.07 mg./kg., i.p., AF64A rats, week III",3.75±1.04
same,Working memory errors (session I),"AF64A-treated rats; AF150 0.07 mg./kg., i.p., Sal. rats, week III",0.18±0.07
same,Working memory errors (session I),"AF64A-treated rats; AF150 1.0 mg./kg., i.p. group, AF64A rats, week (pre)II, before treatment",3.00±0.94
same,Working memory errors (session I),"AF64A-treated rats; AF150 1.0 mg./kg., i.p. group, Sal. rats, week (pre)II, before treatment",0.11±0.05
same,Working memory errors (session I),"AF64A-treated rats; AF150 1.0 mg./kg., i.p., AF64A rats, week III",4.22±1.76
same,Working memory errors (session I),"AF64A-treated rats; AF150 1.0 mg./kg., i.p., Sal. rats, week III",0.13±0.07
same,analgesia (tail pinch),"Mice, Male CD strain; 1 mg./kg. i.p., any time of observation",No analgesia
same,analgesia (tail pinch),"Mice, Male CD strain; 5 mg./kg i.p., 15 minutes after injection",Partial analgesia
same,analgesia (tail pinch),"Mice, Male CD strain; 10 mg./kg. i.p., 15 and 30 minutes",complete
same,analgesia (tail pinch),"Mice, Male CD strain; 10 mg./kg. i.p., ≥ 60 minutes",no analgesia
same,increase in basal cAMP,M1 muscarinic receptor [3],33%
same,increase in forskolin-stimulated cAMP,M1 muscarinic receptor [3],76%
same,RATIOS c:a,M1 muscarinic receptor [1]; KH cerebellum (3H-QNB) : KH cortex (3H-PZ),225
same,RATIOS b:a,M1 muscarinic receptor [1]; KL : KH cortex (3H-PZ),900
same,RATIOS d:b,M1 muscarinic receptor [1]; KL cerebellum (3H-QNB) : KL cortex (3H-PZ),4.4
same,% H,"M1 muscarinic receptor [1]; cortex, Table 4",24%
same,%L,"M1 muscarinic receptor [1]; cortex, Table 4",76%
same,Ki,M1 muscarinic receptor [1]; [4],0.02 µM
same,Ki,"M1 muscarinic receptor [1]; cortex, Table 4, read-out: 3H-PZ-Binding KL (b)",18 µM
"CC1=NC2(CCN(C)CC2)CO1 [AF151, 1-methylpiperidine-4-spiro-4'-(2'-methyl-1',3'-oxazoline)]",EC50,[2],1000 nM
same,AC (adenylate cyclase activity),[2],+++
same,increase in basal cAMP,M1 muscarinic receptor [3],33%
same,increase in forskolin-stimulated cAMP,M1 muscarinic receptor [3],76%
